Experimental data taken from patent EP1222242B1, “CLEANING AGENTS WHICH CONTAIN SURFACTANTS AND ENZYME INHIBITORS” (Henkel Kommanditgesellschaft auf Aktien, priority 1999, dated 2001).
Entries after “also recorded” stand apart in the source; their conditions may differ. Where a SMILES comes first, the peptide text is derived from it. The star is where a group is joined. Cbz = O=C(OCc1ccccc1)*

What was measured:
[1] = test system: Desquamation des Stratum corneum; experiment: Desquamation test on human skin biopsies (detergent-induced corneocyte shedding, corneocyte count); type: cell-based; settings: for Desquamation der Humanhaut (Korneozyten-Abschuppung): result in words over the tested concentration range
Source text: Aus frischen Humanhautexplantaten (aus Mammareduktion) wurden 8mm^2-große Hautstücke ausgestanzt und mit einer Mischung aus Detergentien (Na-Dodecylsulfat, N,N-Dimethyldodecylaminoxid) in Abwesenheit und in Gegenwart der Inhibitoren behandelt. Unter dem Einfluß der Detergentien wird eine verstärkte Abschuppung (Desquamation) der Homschicht (Stratum corneum) künstlich induziert, also die Ausbildung trockener Haut im Versuch nachgeahmt. Die Anzahl abgeschuppter Hornzellen (Korneozyten) wurde unter dem Mikroskop in einer Schilling-Zählkammer bestimmt. Eine Verringerung der Korneozytenzahl weist auf eine hemmende Wirkung der getesteten potentiellen Inhibitoren hin.
Die Inhibitoren wurden in den entsprechenden Konzentrationen (vgl. Tabellen der Beispiele 7-12) im Inkubationspuffer angesetzt. Dieser bestand aus 0,1 M TRIS-HCl-Puffer (pH 8) mit 0,1 Gew.% Na-Azid und den Detergenzien Na-Dodecylsulfat (0,2 mM) und N,N-Dimethyldodecylaminoxid (8 mM) sowie EDTA (5 mM). Diese Inkubationspufferlösungen mit variierender Konzentration des Inhibitors werden nachfolgend als Testlösungen bezeichnet.
Es wurden zwei Arten von Blindkontrollen durchgeführt, eine Positiv- und eine Negativkontrolle. Für die sogenannte Positivkontrolle wurde nur der Inkubationspuffer verwendet, d. h. ohne Zusatz der Inhibitoren. Für die sogenannte Negativkontrolle wurde eine 5 mM Lösung von EDTA in TRIS-HCl-Puffer eingesetzt, d. h. ohne Zusatz der Detergentien.
Pro Reaktionsansatz wurden 0,5 mL der jeweiligen Testlösung oder des für die Blindkontrollen verwendeten Puffergemisches in verschließbaren Reaktionsgefäßen vorgelegt. Alle Ansätze wurden in vierfacher Ausfertigung durchgeführt, um die Reproduzierbarkeit der Ergebnisse zu gewährleisten.
Die Humanhaut wurde nach der Explantation in einer trockenen, sterilen Petrischale auf Kühlakkus transportiert. Nach Entfernung des Unterhautfett- und des Bindegewebes wurden mit Hilfe von sterilen Stanzen 8 mm^2-große Hautstücke präpariert. Diese wurden 15-20 min in steriler, physiologischer NaCl (0,9 %) gewaschen, zu den Reaktionsansätzen gegeben (1 Hautstück/Reaktionsansatz) und 44 Stunden bei 37° C inkubiert.
Nach Beendigung der Inkubationsphase wurden die Reaktionsgefäße 30 Sekunden auf einem Vortex-Mixer geschüttelt, um noch lose anhaftende Komeozyten von den Hautstücken abzulösen. Die Hautstücke wurden entnommen und die verbleibende Dispersion wurde 8 Minuten bei 11.000U/min zentrifugiert, um die Korneozyten zu isolieren. Der detergenshaltige Überstand (0,4 mL) wurde verworfen und der Rückstand mit 0,4 ml Aqua dest. gewaschen. Nach nochmaligem Zentrifugieren wurde der Überstand (0.4 mL) wiederum verworfen, das verbleibende Zellpellet in 0,4 mL Aqua dest. aufgenommen und die abgelösten Korneozyten in einer Schillingzählkammer unter einem Lichtmikroskop ausgezählt.
Nachfolgende Tabellen geben eine Zusammenstellung über die Anzahl abgelöster Korneozyten: • nach Behandlung der Haut-Biopsien mit einem Detergentiengemisch in Abwesenheit der Inhibitoren (Positivkontrolle) • nach Behandlung der Haut-Biopsien mit einer Pufferlösung in Abwesenheit der Detergentien und Inhibitoren (Negativkontrolle) • nach Behandlung der Haut-Biopsien mit einem Detergentiengemisch, welches die Inhibitoren in variierender Konzentration enthält.

Chymotrypsin = biological target: T1, Chymotrypsin (Bos taurus, UniProt P00766); experiment: Chymotrypsin enzyme activity test (BTEE substrate, absorbance at 256 nm); type: biochemical, Rind; settings: for Hemmung von Chymotrypsin: result in words over the tested concentration range
T1 construct: Chymotrypsin entsteht im Pankreas aus inaktiven Vorstufen, sogenannten Zymogenen, durch Einwirkung von Trypsin; purchased Sigma; host or cells: bovine pancreas (Rinderpankreas)
Source text: (§1) Da die hauteigenen, am Desmosomenabbau beteiligten Proteasen nicht in ausreichender Menge zur Verfügung standen, dienten die Serin-Proteasen Trypsin und Chymotrypsin (Sigma) aus Rinderpankreas als Modellenzym, um die Hemmwirkung des erfindungsgemäß verwendeten Inhibitors N-CBZ-Gly-Pro-Phe-Pro-Leu, zu testen. Als Vergleich wurde auch das als t-PA-Inhibitor (tissue-type plasminogen activator) bekannte t-AMCHA [trans-4(Aminomethyl)-cyclohexancarbonsäure] getestet.
Der Nachweis der Chymotrypsin-Enzymaktivität erfolgt mit einer Modifikation analog zu den Angaben im Sigma Quality Control Test Procedure-Datenblatt für Chymotrypsin. Bei Ansätzen ohne Inhibitor wurden 1,42 mL Reagens A (80 mM Tris/HCl-Puffer, pH = 7,8; 25°C) zum Testansatz zugegeben. Bei Ansätzen mit Inhibitor wurden 1,32 mL Reagens A zum Testansatz zugegeben sowie 0,1 mL einer Lösung des entsprechenden Inhibitors in Reagens A (Konzentrationsreihe). Die Enzymaktivität wurde durch Umsetzung des Substrates N-Benzoyl-L-Tyrosinethylester (BTEE) zu N-Benzoyl-L-Tyrosin und Ethanol spektrophotometrisch bestimmt. Die Absorption des proteolytisch abgespaltenen N-Benzoyl-L-Tyrosins wird bei 256 nm gemessen.
(§2) Die Reaktionskinetiken wurden je 5 Minuten bei 25 °C detektiert, wobei der lineare Anstieg der Absorption (A) pro Zeiteinheit (t) ein Maß für die Aktivität des Enzyms (ΔA/Δt) ist. Die Aktivität des Enzyms in Abwesenheit eines Proteinase-Inhibitors, (ΔA1/Δt1 ), wurde auf 100% gesetzt. Unter analogen Bedingungen wurden die Aktivitäten in Gegenwart eines Inhibitors (ΔA2/Δt2) bestimmt. Die Hemmwirkung oder Minderung der Enzymaktivität entspricht dann: 100% - (ΔA2/Δt2 )/( ΔA1/Δt1)%.

Trypsin = biological target: T2, Trypsin (Bos taurus, UniProt P00760); experiment: Trypsin enzyme activity test (BAPNA substrate, absorbance at 405 nm); type: biochemical, Rind; settings: for Hemmung von Trypsin: result in words over the tested concentration range
T2 construct: aus der vom Pankreas gebildeten Vorstufe Trypsinogen durch Abspaltung eines Hexapeptids entsteht; purchased Sigma; host or cells: bovine pancreas (Rinderpankreas)
T2 sequence (P00760 24-246): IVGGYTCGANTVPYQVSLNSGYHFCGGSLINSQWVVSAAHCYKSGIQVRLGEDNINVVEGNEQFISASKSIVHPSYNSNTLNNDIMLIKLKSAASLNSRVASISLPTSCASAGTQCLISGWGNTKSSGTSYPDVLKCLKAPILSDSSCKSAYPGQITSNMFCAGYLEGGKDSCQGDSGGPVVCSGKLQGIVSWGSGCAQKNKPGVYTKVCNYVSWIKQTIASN
Source text: as §1
Auch der Nachweis der Trypsin-Enzymaktivität erfolgt mit einer Modifikation analog zu den Angaben im Sigma Quality Control Test Procedure-Datenblatt für Trypsin. Anstelle von Aprotinin (Reagens F) wurden hier die erfindungsgemäßen Inhibitoren eingesetzt. Hierfür wurde eine Konzentrationsreihe der Inhibitoren in Reagens E angesetzt. Die Enzymaktivität wurde durch Umsetzung des Substrates Nα-Benzoyl-DL-Arginin-p-Nitroanilin (BAPNA) zu Nα-Benzoyl-DL-Arginin und p-Nitroanilin spektrophotometrisch bestimmt. Die Absorption des proteolytisch abgespaltenen p-Nitroanilins wird bei 405 nm gemessen.
as §2

[2] = Homo sapiens, pH 8, inhibitor 0,1 % (w/v), corneocyte count, positive control = 100 %, 44 h, 37° C, read-out: Desquamation an Humanhaut ex vivo
[3] = Homo sapiens, pH 8, inhibitor 0,5 % (w/v), corneocyte count, positive control = 100 %, 44 h, 37° C, read-out: Desquamation an Humanhaut ex vivo
[4] = Homo sapiens, pH 8, inhibitor 1,0 % (w/v), corneocyte count, positive control = 100 %, 44 h, 37° C, read-out: Desquamation an Humanhaut ex vivo
[5] = inhibitor concentration 0,001 % (w/v), 25 °C
[6] = inhibitor concentration 0,005 % (w/v), 25 °C
[7] = inhibitor concentration 0,01 % (w/v), 25 °C
[8] = inhibitor 0,1 % (w/v), corneocyte count, positive control = 100 %, 44 h, 37° C
[9] = inhibitor 0,5 % (w/v), corneocyte count, positive control = 100 %, 44 h, 37° C
[10] = inhibitor concentration 0,03 % (w/v), 25 °C
[11] = inhibitor concentration 0,1 % (w/v), 25 °C
[12] = inhibitor concentration 0,05 % (w/v), 25 °C
[13] = inhibitor concentration 0,5 % (w/v), 25 °C

Hemmwirkung (Minderung der Chymotrypsin-Aktivität) (Chymotrypsin; [5]) | Hemmwirkung (Minderung der Trypsin-Aktivität) (Trypsin; [7]) | Hemmwirkung (Minderung der Chymotrypsin-Aktivität) (Chymotrypsin; [7]) | Hemmwirkung (Minderung der Chymotrypsin-Aktivität) (Chymotrypsin; [11]) | Compound | activity at 0.1 % [1, 2] | activity at 0.5 % [1, 3] | activity at 1 % [1, 4] | Desquamation der Humanhaut (Korneozyten-Abschuppung) [1] | Hemmung von Chymotrypsin (Chymotrypsin) | Hemmung von Trypsin (Trypsin) | Desquamation an Humanhaut ex vivo [1, 8] | Desquamation an Humanhaut ex vivo [1, 9] | Hemmwirkung (Minderung der Chymotrypsin-Aktivität) (Chymotrypsin; [12]) | Hemmwirkung (Minderung der Trypsin-Aktivität) (Trypsin; [5]) | also measured
keine Hemmwirkung messbar | 61% | – | – | O=C(/C=C/c1ccc(O)c(O)c1)O[C@H](Cc1ccc(O)c(O)c1)C(=O)O [Rosmarinsäure] | 82.5% | 60% | 33.8% | konzentrationsabhängige Reduktion; also recorded: signifikant reduziert | gering | starke, konzentrationsabhängige Hemmung | – | – | – | – | Desquamation an Humanhaut ex vivo ([1]; inhibitor 1,0 % (w/v), corneocyte count, positive control = 100 %, 44 h, 37° C): 33,8%; Hemmwirkung (Minderung der Chymotrypsin-Aktivität) (Chymotrypsin; [6]): 2%; Hemmwirkung (Minderung der Chymotrypsin-Aktivität) (Chymotrypsin; inhibitor concentration 0,0075 % (w/v), 25 °C): 7%
– | – | – | – | CC(C)CC(NC(=O)C1CCCN1C(=O)C(Cc1ccccc1)NC(=O)C1CCCN1C(=O)CNC(=O)OCc1ccccc1)C(=O)O (stereo not drawn) [N-CBZ-GPFPL, N-CBZ-Gly-Pro-Phe-Pro-Leu] (Cbz-GPFPL-OH; configuration not given here) | – | – | – | signifikant reduziert | spezifische Hemmung | nicht beeinträchtigt | 93% | 51% | – | – | Reduktion der Abschuppung (Desquamation der Haut) ([1]; inhibitor 0,5 %, result in words): um die Hälfte reduziert; inhibition at 0.06 % (Chymotrypsin; 5 min, pH 7.8, inhibitor concentration 0,06 % (w/v), 25 °C, read-out: Hemmwirkung (Minderung der Chymotrypsin-Aktivität)): 7%; inhibition at 0.33 % (Chymotrypsin; 5 min, pH 7.8, inhibitor concentration 0,33 % (w/v), 25 °C, read-out: Hemmwirkung (Minderung der Chymotrypsin-Aktivität)): 27%; Hemmwirkung (Minderung der Chymotrypsin-Aktivität) (Chymotrypsin; [10]): 2%; Hemmwirkung (Minderung der Trypsin-Aktivität) (Trypsin; [10]): keine Hemmwirkung messbar; Hemmwirkung (Minderung der Trypsin-Aktivität) (Trypsin; inhibitor concentration 0,06 % (w/v), 25 °C): -"-; Hemmwirkung (Minderung der Trypsin-Aktivität) (Trypsin; inhibitor concentration 0,33 % (w/v), 25 °C): -"-
– | 9% | keine Hemmwirkung messbar | - " - | NC[C@H]1CC[C@H](C(=O)O)CC1 [t-AMCHA, trans-4(Aminomethyl)-cyclohexancarbonsäure] | – | 51.3% | 44% | Desquamationsinhibitor mit konzentrationsabhängigem Profil; also recorded: signifikant reduziert | nicht beeinträchtigt | in Abhängigkeit von der Inhibitor-Konzentration beeinträchtigt | – | – | - " - | – | activity at 2.5 % ([1]; Homo sapiens, pH 8, inhibitor 2,5 % (w/v), corneocyte count, positive control = 100 %, 44 h, 37° C, read-out: Desquamation an Humanhaut ex vivo): 37.1%; Hemmwirkung (Minderung der Chymotrypsin-Aktivität) (Chymotrypsin; [13]): - " -; Hemmwirkung (Minderung der Chymotrypsin-Aktivität) (Chymotrypsin; inhibitor concentration 1,0 % (w/v), 25 °C): - " -; inhibition at 0.1 % (Trypsin; 5 min, inhibitor concentration 0,1 % (w/v), 25 °C, read-out: Hemmwirkung (Minderung der Trypsin-Aktivität)): 51%; inhibition at 0.05 % (Trypsin; 5 min, inhibitor concentration 0,05 % (w/v), 25 °C, read-out: Hemmwirkung (Minderung der Trypsin-Aktivität)): 36%; inhibition at 0.5 % (Trypsin; 5 min, inhibitor concentration 0,5 % (w/v), 25 °C, read-out: Hemmwirkung (Minderung der Trypsin-Aktivität)): 85%; inhibition at 1 % (Trypsin; 5 min, inhibitor concentration 1,0 % (w/v), 25 °C, read-out: Hemmwirkung (Minderung der Trypsin-Aktivität)): 93%
keine Hemmwirkung meßbar | Keine Hemmwirkung meßbar | keine Hemmwirkung meßbar | 23% | Borsäure | – | – | – | signifikant reduziert | schwache Hemmung; also recorded: nur schwach | schwache Hemmung; also recorded: nur schwach | 50% | – | – | Keine Hemmwirkung meßbar | Desquamation an Humanhaut ex vivo ([1]; inhibitor 0,01 % (w/v), corneocyte count, positive control = 100 %, 44 h, 37° C): 86%; Desquamation an Humanhaut ex vivo ([1]; inhibitor 0,2 % (w/v), corneocyte count, positive control = 100 %, 44 h, 37° C): 47%; Reduktion der Abschuppung der Korneozyten ([1]; inhibitor 0,2 %, result in words): halbieren; Hemmwirkung (Minderung der Trypsin-Aktivität) (Trypsin; [11]): 6%; Hemmwirkung (Minderung der Trypsin-Aktivität) (Trypsin; [13]): 23%
– | – | – | – | NCCc1ccc(S(=O)(=O)F)cc1 [Pefabloc® SC, 4-(2-Aminoethyl)phenylsulfonylfluorid] | – | – | – | – | starke, konzentrationsabhängige Hemmung | starke, konzentrationsabhängige Hemmung | 34% | 11% | – | – | Abschuppung reduziert um ([1]; inhibitor 0,5 %, reduction versus positive control): ~90%; Hemmung von Chymotrypsin (Chymotrypsin; listed as Pefabloc®): effektiver Inhibitor; Hemmung von Trypsin (Trypsin; listed as Pefabloc®): effektiver Inhibitor

Compound | Hemmwirkung (Minderung der Chymotrypsin-Aktivität) (Chymotrypsin; [5]) | Hemmwirkung (Minderung der Trypsin-Aktivität) (Trypsin; [7]) | Hemmwirkung (Minderung der Chymotrypsin-Aktivität) (Chymotrypsin; [7]) | Hemmwirkung (Minderung der Chymotrypsin-Aktivität) (Chymotrypsin; [11]) | activity at 0.1 % [1, 2] | activity at 0.5 % [1, 3] | activity at 1 % [1, 4] | Desquamation der Humanhaut (Korneozyten-Abschuppung) [1] | Hemmung von Chymotrypsin (Chymotrypsin) | Hemmung von Trypsin (Trypsin) | Desquamation an Humanhaut ex vivo [1, 8] | Desquamation an Humanhaut ex vivo [1, 9] | Hemmwirkung (Minderung der Chymotrypsin-Aktivität) (Chymotrypsin; [12]) | Hemmwirkung (Minderung der Trypsin-Aktivität) (Trypsin; [5]) | also measured
OB(O)c1ccccc1 [Phenylboronsäure] | keine Hemmung meßbar | Keine Hemmung meßbar | 9% | – | 60% | – | – | signifikant reduziert | deutliche, konzentrationsabhängige Hemmung | nur mäßig beeinträchtigt | – | – | 45% | Keine Hemmung meßbar | activity at 0.05 % ([1]; Homo sapiens, pH 8, inhibitor 0,05 % (w/v), corneocyte count, positive control = 100 %, 44 h, 37° C, read-out: Desquamation an Humanhaut ex vivo): 89%; Reduktion der Abschuppung der Korneozyten ([1]; inhibitor 0,1 %, result in words): siginifikant reduzieren; Hemmwirkung (Minderung der Trypsin-Aktivität) (Trypsin; [12]): 5%; Hemmwirkung (Minderung der Trypsin-Aktivität) (Trypsin; [6]): Keine Hemmung meßbar
